Results as given in US20240190858A1, “CRYSTALLINE FORMS, PHARMACEUTICAL COMPOSITIONS AND METHODS OF USE THEREOF” (priority 2022, published 2024).

Key:
[1] = test system: MTAP-null OCI-LY19 cell line tumors; test: OCI-LY19 MTAP-null xenograft, switch from TNG908 to compound of Formula (I); format: in vivo, mice; conditions: 120 mg/kg BID
Excerpt: The data is shown in FIG. 10A and FIG. 10B as mean±SEM. Regression is defined as final mean tumor volume <30% initial mean tumor volume.

[2] = Oral pharmacokinetics in cynomolgus monkey; format: in vivo, cynomolgous monkeys; conditions: 3 mg/kg via oral gavage, n=3
Excerpt: The dotted lines indicate the HAP1 MTAP-null and MTAP WT GI50s from a 7-day viability assay the compound. The data is presented as mean±SD.

[3] = test system: MTAP-null NCI-H838 NSCLC CDX; test: MTAP-null NCI-H838 NSCLC CDX model, combination with AGI-41998; format: in vivo; conditions: AGI-41998 at 10 mg/kg QD, minimum of 28 days
Description: Briefly the groups were treated for a minimum of 28 days and tumor-volumes were monitored for the indicated time period.

## Cc1cc(NC(=O)C(=O)N2C[C@@H](C)CC[C@@H]2c2ccc3scnc3c2)cnc1N [TNG908]
[1]
  tumor response under continuous dosing: appear to have developed resistance

## CCc1cc(NC(=O)C(=O)N2C[C@@H](C)CC[C@@H]2c2ccc3sc(C4CCN(C)CC4)nc3c2)cnc1N [compound of Formula (I), N-(6-amino-5-ethylpyridin-3-yl)-2-((2R,5S)-5-methyl-2-(2-(1-methylpiperidin-4-yl)benzo[d]thiazol-5-yl)piperidin-1-yl)-2-oxoacetamide]
[2]
  pharmacokinetic properties: good pharmacokinetic properties

## AGI-41998
[3]
  change in tumor volume: increases in tumor volumes
